Data: patent US7803788B2, “Prodrugs of phosphonate nucoleotide analogues” (Gilead Sciences, Inc., priority 2000, dated 2010)
Like-named read-outs stand apart in the source and are kept apart here.

Assays:
[1] = dogs, oral, 10 mg-equivalent of PMPA/kg
Description: Formulations. The prodrugs were formulated as solutions in 50 mM citric acid within 0.5 hour prior to dose. All compounds used in the studies were synthesized by Gilead Sciences. The following lots were used:
Dose Administration and Sample Collection. The in-life phase of this study was conducted in accordance with the recommendations of the “Guide for the Care and Use of Laboratory Animals” (National Institutes of Health publication 86-23) and was approved by an Institutional Animal Care and Use Committee. Fasted male beagle dogs (10±2 kg) were used for the studies. Each drug was administered as a single dose by oral gavage (1.5-2 ml/kg). The dose was 10 mg-equivalent of PMPA/kg. […] Blood (1.0 ml) was processed immediately for plasma by centrifugation at 2,000 rpm for 10 min. Plasma samples were frozen and maintained at […] until analyzed.
Peripheral Blood Mononuclear Cell (PBMC) preparation. Whole blood (8 ml) drawn at specified time points was mixed in equal proportion with phosphate buffered saline (PBS), layered onto 15 ml of Ficoll-Paque solution (Pharmacia Biotech,) and centrifuged at 400×g for 40 min. PBMC layer was removed and washed once with PBS. Formed PMBC pellet was reconstituted in 0.5 ml of PBS, cells were resuspended, counted using hemocytometer and maintained at […] until analyzed. The number of cells multiplied by the mean single-cell volume was used in calculation of intracellular concentrations. […] Agents Chemother.
Determination of PMPA and Prodrugs in plasma and PBMCs. […] Derivatized samples were then evaporated to dryness and reconstituted in 100 μl of water for HPLC analysis.
Before intracellular PMPA could be determined by HPLC, the large amounts of adenine related ribonucleotides present in the PBMC extracts had to be removed by selective oxidation.
The mobile phases used were: A, 5% acetonitrile in 25 mM potassium phosphate buffer with 5 mM tetrabutyl ammonium bromide (TBABr), pH 6.0; B, 60% acetonitrile in 25 mM potassium phosphate buffer with 5 mM TBABr, pH 6.0. The flow rate was 2 ml/min and the column temperature was maintained at 35° C. by a column oven. […] Data was acquired and stored by a laboratory data acquisition system (PeakPro, Beckman, Allendale, N.J.).
Pharmacokinetic Calculations. […] The AUC values were calculated using the trapezoidal rule.

HIV-1 = assay: In vitro anti-HIV-1 activity in MT-2 cells; assay type: cell-based; details: for Fold change: Table 4, IC50 relative to PMPA
[2] = Stability / hydrolysis in MT-2 cell extract; assay type: in vitro ADME; details: for MT-2 extract hydrolysis product: 37° C., HEPES buffer pH 7.4
Description: (§1) The in vitro metabolism and stability of separated diastereomers were determined in PLCE, MT-2 extract and human plasma. A biological sample listed below, 80 μL, was transferred into a screw-capped centrifuge tube and incubated at 37° C. for 5 min. A solution containing 0.2 mg/mL of the test compound in a suitable buffer, 20 μL, was added to the biological sample and mixed. The reaction mixture, 20 μL, was immediately sampled and mixed with 60 μL of methanol containing 0.015 mg/mL of 2-hydroxymethylnaphthalene as an internal standard for HPLC analysis. The sample was taken as the time-zero sample. Then, at specific time points, the reaction mixture, 20 μL, was sampled and mixed with 60 μl of methanol containing the internal standard. The mixture thus obtained was centrifuged at 15,000 G for 5 min and the supernatant was analyzed with HPLC under the conditions described below.
(§2) The biological samples evaluated are as follows, • (1) PLCE (porcine liver carboxyesterase from Sigma, 160 u/mg protein, 21 mg protein/mL) diluted 20 fold with PBS (phosphated-buffered saline). • (2) MT-2 cell extract was prepared from MT-2 cells according to the published procedure [A. Pompon, I. Lefebvre, J.-L. Imbach, S. Kahn, and D. Farquhar, “Antiviral Chemistry & Chemotherapy”, 5:91-98 (1994)] except for using HEPES buffer described below as the medium. • (3) Human plasma (pooled normal human plasma from George King Biomedical Systems, Inc.)
In the study for MT-2 cell extracts, the test compound was dissolved in HEPES buffer. HEPES buffer contains 0.010 M HEPES, 0.05 M potassium chloride, 0.005 M magnesium chloride, and 0.005 M dl-dithiothreitol. pH 7.4 at 37° C.
(§3) The HPLC analysis was carried out under the following conditions.

[3] = Excretion and tissue distribution of radiolabelled GS-7340 in dogs; details: dogs, oral 10 mg-eq. PMPA/kg
Description: Plasma and peripheral blood mononuclear cells (PBMCs) were obtained over the 24-hr period. Urine and feces were cage collected over 24 hr. At 24 h after the dose, the animals were sacrificed and tissues removed for analysis. Total radioactivity in tissues was determined by oxidation and liquid scintillation counting.

[4] = PMPA metabolites in plasma, PBMCs and RBCs after 1 h incubation in human blood
Description: After 1 hour, plasma, red blood cells (RBCs) and peripheral blood mononuclear cells (PBMCs) were isolated and analyzed by HPLC with radiometric detection.
Met. Lower case “p” designates phosphorylation.

MT-2 cells = assay: Cytotoxicity in MT-2 cells
[5] = Stability in human plasma; assay type: in vitro ADME; details: for Human Plasma Stability (HP) product / Human Plasma Stability (HP) t1/2: 37° C., TBS pH 7.5
Description: as §1, §2
In the study for human plasma, the test compound was dissolved in TBS. TBS (tris-buffered saline, Sigma) contains 0.05 M Tris, 0.0027 M potassium chloride, and 0.138 M sodium chloride. pH 7.5 at 37° C.
as §3

[6] = system: PLCE (porcine liver carboxyesterase); assay: PLCE hydrolysis; assay type: in vitro ADME; details: 37° C., PBS pH 7.4
Description: as §1, §2
In the study for PLCE, the test compound was dissolved in PBS. PBS (phosphate-buffered saline, Sigma) contains 0.01 M phosphate, 0.0027 M potassium chloride, and 0.137 M sodium chloride. pH 7.4 at 37° C.
as §3

[7] = Table 4, effect of diastereomer, read-out: IC50
[8] = Table 5 (selected IC50 data from Table 4), read-out: HIV IC50

CCOC(=O)C(C)NP(=O)(COC(C)Cn1cnc2c(N)ncnc21)Oc1ccccc1 (single isomer, unassigned) [GS-7114]
PBMC/Plasma Exposure Ratio [1]: 122
Prodrug in Plasma [1]: YES
IC50 (HIV-1; [7]): 5 nM
Fold change (HIV-1): 1,000x

CCOC(=O)C(C)NP(=O)(COC(C)Cn1cnc2c(N)ncnc21)Oc1ccccc1 (single isomer, unassigned) [GS-7115]
PBMC/Plasma Exposure Ratio [1]: 43
Prodrug in Plasma [1]: YES
IC50 (HIV-1; [7]): 50 nM
Fold change (HIV-1): 100x

CC(C)OC(=O)[C@H](C)N[P@](=O)(CO[C@H](C)Cn1cnc2c(N)ncnc21)Oc1ccccc1 (single isomer, unassigned) [GS-7340]
Stability T ½ MT-2 Cell Extract ([2]; MT-2 cell extract): 0.472 h
% Dose ([3]; Abdominal fat): 0.00%
Conc. ([3]; Abdominal fat): 0.90 ug-eq/g
% Dose ([3]; Adrenal Gland): 0.00%
% Dose ([3]; Axillary Lymph Nodes): 0.01%
% Dose ([3]; Bile): 0.22%
% Dose ([3]; Bone Marrow): 0.00%
% Dose ([3]; Brain): 0.00%
Conc. ([3]; Brain): <LOD
% Dose ([3]; Cerebrospinal Fluid): 0.00%
Conc. ([3]; Cerebrospinal Fluid): 0.00 ug-eq/g
% Dose ([3]; Duodenum): 0.44%
% Dose ([3]; Eye (L + R)): 0.00%
Conc. ([3]; Eye (L + R)): 0.23 ug-eq/g
% Dose ([3]; Feces): 0.19%
% Dose ([3]; Femoral Bone): 0.00%
Conc. ([3]; Femoral Bone): 0.28 ug-eq/g
% Dose ([3]; Gall bladder): 0.04%
% Dose ([3]; Heart): 0.15%
% Dose ([3]; Ileum): 0.16%
% Dose ([3]; Iliac Lymph Nodes): 0.01%
% Dose ([3]; Inguinal Lymph Nodes): 0.00%
% Dose ([3]; Jejunum): 0.79%
% Dose ([3]; Lungs): 0.34%
% Dose ([3]; Mesenteric Lymph Nodes): 0.04%
% Dose ([3]; Pancreas): 0.01%
% Dose ([3]; Pituitary Gland): 0.00%
Conc. ([3]; Pituitary Gland): 1.80 ug-eq/g
% Dose ([3]; Prostate): 0.00%
% Dose ([3]; Salivary Gland (L + R)): 0.03%
% Dose ([3]; Skeletal Muscle): 0.01%
% Dose ([3]; Skin): 0.00%
Conc. ([3]; Skin): 0.95 ug-eq/g
% Dose ([3]; Spinal Cord): 0.00%
Conc. ([3]; Spinal Cord): 0.04 ug-eq/g
% Dose ([3]; Spleen): 0.17%
% Dose ([3]; Stomach): 0.26%
% Dose ([3]; Testes (L + R)): 0.02%
% Dose ([3]; Thyroid Gland): 0.00%
% Dose ([3]; Whole Blood): 0.16%
Conc. ([3]; Whole Blood): 0.20 ug-eq/g
Metabolites (% of Total Peak Area): GS 7340 (intact) ([4]; Plasma/FP): 84%
Total C-14 Recovered ([4]; Plasma/FP, 60 μg-eq): 43.0 μg-eq
Metabolites (% of Total Peak Area): GS 7340 (intact) ([4]; RBC/FP): 57%
CC50 (MT-2 cells; Table 4): ≥ 40000 nM
CC50 (MT-2 cells; read-out: Cytotoxicity CC50, MT-2 cells, Table 1): > 40000 nM
Stability T ½ Human Plasma ([5]; human plasma): 1.5 h

CCOC(=O)C(C)NP(=O)(COC(C)Cn1cnc2c(N)ncnc21)Oc1ccccc1 (single isomer, unassigned) [compound 1]
IC50 (HIV-1; [8]): 5 nM
PLCE hydrolysis product [6]: Met. X & PMPA
MT-2 extract hydrolysis product [2]: Met. X & PMPA
Human Plasma Stability (HP) product [5]: Met. Y
Human Plasma Stability (HP) t1/2 [5]: 2.47 h

CCOC(=O)C(C)NP(=O)(COC(C)Cn1cnc2c(N)ncnc21)Oc1ccccc1 (single isomer, unassigned) [compound 2]
IC50 (HIV-1; [8]): 50 nM
PLCE hydrolysis product [6]: Met. X & PMPA
MT-2 extract hydrolysis product [2]: Met. X & PMPA
Human Plasma Stability (HP) product [5]: Met. Y
Human Plasma Stability (HP) t1/2 [5]: 8.25 h

CCOC(=O)C(CC)NP(=O)(COC(C)Cn1cnc2c(N)ncnc21)Oc1ccccc1 (single isomer, unassigned) [compound 6]
IC50 (HIV-1; [8]): 30 nM
PLCE hydrolysis product [6]: Met. X
Human Plasma Stability (HP) product [5]: Met. Y
Human Plasma Stability (HP) t1/2 [5]: 4.28 h
